One series concerns c-Fos positive neurones. Briefly: Example 1: formalin hindpaw injection in 7 day neonatal rat pup, cFos positive neurones in dorsal horn. The class given is in vivo. The note with it: 7 day old rat; dorsal horn of spinal cord; 90 minutes after formalin; xenon 70% v/v, nitrous oxide at a normally analgesic dose in the adult rat. How it is done: The analgesic efficacy of xenon was investigated in a neonatal rat pup. A 7 day neonatal rat pup is known to be developmentally equivalent to a human full term fetus with respect to pain processing pathways.
A 7 day old rat was injected with formalin into the hindpaw during exposure to either air or xenon (70% v/v). 90 minutes later the animal was killed and the spinal cord removed; evidence of activation of pain-processing pathways by formalin was sought by counting the number of cFos positive neurones in the dorsal horn of the spinal cord.

The conditions of series [1]: cited from earlier work.
In a further series the test system is rats. The note with it: cited from earlier work.
For series [2] the following is noted: in vivo; cited from earlier work.
For another series, the system named is NMDA receptor. The following applies: 80% xenon; cultured hippocampal neurons; cited from earlier work.
For a further series, the system named is Fischer rats. Briefly: Formalin plantar test, nociceptive intensity scoring (behaviour). It is filed as in vivo, rat. The note with it: for area under curve (AUC) of nociceptive intensity scoring curves: 70% Xe + formalin, AUC over 60 min, mean(SEM), n=3-4. How it is done: (§1) The study protocol was approved by the Home Office (UK), and all efforts were made to minimize animal suffering and the number of animals used. Fischer rats were used for the entire study (B&K Universal, Grimston Aldbrough Hull, UK). The rats were provided ad libitum food and water, and artificial lighting between 6 a.m. and 6 p.m. The age of each animal was determined from the body weight, based on a previously established growth curve (Hashimoto et al., 2002). (The date of birth was defined as 0 day-old.) Experiments were performed on rat pups of 7, 19, 28 day-old and on adult rats (11-12 week-old).
(§2) Within each age-group, there were three cohorts (n=3 - 4) “Air+formalin”, “Xenon+formalin” and “Air+saline” cohorts. In the Air+formalin group, animals exposed to air were injected with 5% formalin into the plantar surface of their left hind paw subcutaneously. In the Xenon+formalin group, animals exposed to 70% Xe/20% O2/10% N2 were injected with 5% formalin as described above. In the Air+saline group, animals exposed to air were injected with saline as above. The volumes of formalin or saline injected were adjusted for each age group as previously reported [Ohashi Y et al, Pain 2002;100:7-18] and were as follows: 10 μl for 7 days old; 15 μl for 19 days old; 20 μl for 28 days old; 50 μl for adults.
(§3) A recirculating system for exposure to the gas was constructed to minimise xenon consumption (FIG. 3). The circuit was flushed with gas (either air or xenon/oxygen/nitrogen) at a flow rate of 4 l/min and after the desired gas concentrations were achieved, the flow rate was reduced to 40 ml/min for the remainder of the experimental period. The carbon dioxide level and the humidity were kept less than 0.6% and 50% respectively with soda lime and silica gel. Formalin or saline was administered 15 min after gas exposure; thereafter, animals were exposed to the gas mixture for a further 90 min.
Immediately after injection of formalin, behavior was recorded for 60 min with a video camera (MegaPixel, Digital Handycam, Sony) positioned approximately 50 cm beneath the floor of the chamber to allow an unobstructed view of the paws (visible via a television monitor) and to facilitate recording of animal behavior. The chamber and holding area for pups waiting to be tested were maintained at room temperature throughout the experiment.
Older rat pups were scored across four categories of pain behavior after xenon administration: no pain (the injected paw was in continuous contact with floor=“0”), favoring (the injected paw rested lightly on the floor=“1”), lifting (the injected paw was elevated all the time=“2”) and licking (licking, biting or shaking of the injected paw=“3”) [Teng C J et al, Pain 1998;76:337-47] and calculated as [Nociceptive score =(T1+[T2×2]+[T3×3])/300, where T1, T2 and T3 are the durations (sec) spent in categories 1, 2 or 3 per 300 sec epoch].
The nociceptive intensity scoring against time in each animal was plotted and the area under curve (over a 60 min time period) (AUC) from each animal was calculated. The mean of c-Fos positive neurons for three representative sections in each region as described above was the aggregate score for each animal. The results of nociceptive intensity or c-Fos positive neurons are reported as means±SEMs. The statistical analysis was performed by one-way analysis of variance, followed by Newman-Keuls test. A p value <0.05 was regarded as statistically significant.

The test system of a further series is c-Fos expression. Kind of series: Formalin-induced c-Fos expression at the lumbar level of the spinal cord (immunohistochemistry). It is filed as in vivo, rat. The following applies: ipsilateral, 70% Xe; for reduction of c-Fos expression in response to formalin: 7 day-old pups; for suppression of mean c-Fos expression: 19 day-old rats; for depression of c-Fos expression in response to formalin: 28 day-old rats; for inhibition of c-Fos expression: adult rats. How it is done: as §1, §2, §3
Ninety min after the formalin injection, animals were deeply anesthetised with pentobarbital (100 mg/kg, i.p.) and perfused with 4% paraformaldehyde. The whole spinal cord was removed. The lumbar enlargement was sectioned transversely at 30 μm and then was stained for c-Fos as previously described [Ma D et al, Br J Anaesth 2002;89:73946]. Briefly, sections were incubated for 30 min in 0.3% H2O2 in methanol and thereafter washed three times in 0.1M phosphate buffered saline (PBS). Following this, the sections were incubated for 1 hour in a “blocking solution” consisting of 3% donkey serum and 0.3% Triton X in PBS (PBT) and subsequently incubated overnight at 4° C. in 1:5,000 goat anti-c-Fos antibody (sc-52-G, Santa Cruz Biotechnology, Santa Cruz, Calif.) in PBT with 1% donkey serum. The sections were then rinsed 3 times with PBT and incubated with 1:200 donkey anti-goat IgG (Vector laboratories, Burlingame, Calif.) in PBT with 1% Donkey serum for 1 hour. The sections were washed again with PBT and incubated with avidin-biotin-peroxidase complex (Vector Laboratories) in PBT for 1 hour. The sections were rinsed 3 times with PBS and stained with 3,3′-diaminobenzidine (DAB) with nickel ammonium sulphate in which hydrogen peroxide was added (DAB kit, Vector Laboratories). After the staining was completed, the sections were rinsed in PBS followed by distilled water and mounted, dehydrated with 100% ethanol, cleaned with 100% xylene and covered with cover slips.
Photomicrographs of three sections per each animal were scored for c-Fos positive neurons by an observer who was blinded to the experimental treatment. For the purpose of localizing the c-Fos positive cells to functional regions of the spinal cord, each section was divided into A/B (laminae I-II or the superficial area), C (laminae […] or nucleus proprius area), D (laminae V-VI or the neck area and E (laminae VII-Xor the ventral area) [Yi D K et al, Pain 1995;60:257-265]. […]

For series [3] the following is noted: administration of xenon; cited from earlier work.

The values below come from US7632872B2, “Analgesic agent for newborn or fetal subjects” (Protexeon Limited, priority 2002, dated 2009).

Molecules are shown by their SMILES. Like-named read-outs stand apart in the source and are kept apart here. Marks after values point to notes of the source that are not given here.

Take `[N-]=[N+]=O` [N2O, Nitrous oxide]: in the series on c-Fos positive neurones, the “effect on formalin-induced c-Fos positive neurones” value is “did not change”. Also, the MAC in series [1] (humans) is 104%. For the same compound, in the series with rats (animals younger than 23 days old, formalin), the “antinociceptive effect (behaviorally and immunohistochemically)” value is on record as “no antinociceptive effect”. Also, the “antinociceptive effects against thermal and inflammatory stimulation” value in the series with rats (rats under 3 weeks of age) is reported as “lacks antinociceptive effects”.
As for `[Xe]` [xenon], in series [2], the teratogenic effects entry was “devoid of teratogenic effects”. In addition, the “reduction of NMDA-activated currents” value in the series on NMDA receptor is “up to 60%”. Further, the “effect on formalin-induced c-Fos positive neurones” value with c-Fos positive neurones was “almost completely attenuated”. Moreover, the “area under curve (AUC) of nociceptive intensity scoring curves” value is 0.17(0.04)** with Fischer rats (7-day-old Fischer rats, P<0.001 vs Air + formalin 11(0.4)); 5(0.9)* with Fischer rats (19-day-old Fischer rats, P<0.01 vs Air + formalin 88(8)); 1.0(0.3)** in the series on Fischer rats (28-day-old Fischer rats, P<0.001 vs Air + formalin 81(7)); 0.8(0.1)** in the series with Fischer rats (Adult Fischer rats, P<0.001 vs Air + formalin 120(0.7)). Besides, the “nociceptive behaviour after formalin injection” value with Fischer rats (7 day-old rats exposed to xenon, 60-min observation period) is recorded as “only mild nociceptive behaviour for the first two minutes”. Also, the “reduction of c-Fos expression in response to formalin” value was 50% with c-Fos expression (lamina C, P<0.001); 50% in the series on c-Fos expression (lamina D, P<0.001); 28% in the series with c-Fos expression (lamina E, P<0.01); 48% in the series on c-Fos expression (laminae A/B, P<0.001). Besides, the “suppression of mean c-Fos expression” value worked out at 57% with c-Fos expression (lamina III-IV, P<0.001); 62% with c-Fos expression (lamina V-VI, P<0.001); 55% in the series on c-Fos expression (laminae I-II, P<0.001). Besides, the “depression of c-Fos expression in response to formalin” value with c-Fos expression (lamina III-IV, P<0.001) stood at 27%; in the series with c-Fos expression (lamina V-VI, P<0.001) it was 28%; in the series with c-Fos expression (laminae I-II, P<0.001) it was 34%. The “inhibition of c-Fos expression” value with c-Fos expression (lamina III-IV, P<0.001) came out at 45%; in the series on c-Fos expression (lamina V-VI, P<0.001), 34%; in the series on c-Fos expression (laminae I-II, P<0.001), 41%. Besides, in series [3], the “inherent neurotoxicity of NMDA antagonists” value is listed as “does not appear to exist”. The “minimum alveolar concentration (MAC)” value in series [1] (elderly female patients) was 51 % atn; in series [1] (humans) it was 71 % atm. Besides, the MAC-awake in series [1] (in vivo) was 33%.
